In patent US20110144303A1, “Biologically Active Peptidomimetic Macrocycles” (AILERON Therapeutics, Inc., priority 2008, published 2011):
Where “and” joins values, the source holds several entries; their conditions need not be identical. Identical values can stand only once. Like-named read-outs stand apart in the source and are kept apart here. Values belong to the compound of their own block, whether it stands above or below them. Starred links: 1 amine or outer side, 2 acyl side, 3 side chain; linkers in the order of their positions; H or OH if unused. Positions of bridges follow the written chain, without caps; N, C: chain ends. Non-standard residues stand in square brackets, D forms with d. Residues, ends and D or L forms follow the SMILES beside them. ξ: configuration not given here. Nle = CCCC[C@H](N)C(=O)O; ξαMeC = CC(N)(CS)C(=O)O; X1 = C(=CC[*:2])C[*:1]; X2 = C(CC[*:2])C[*:1]

Key:
[1] = Pepsin Stability: (E/S 1:50)
Source text: Table printed on a drawing sheet, Figure 14
(§1) Title: Pepsin Stability: (E/S 1:50)
The patent's description of the figure: FIG. 14 describes the comparative pepsin stability of SP-33 and SP-34 peptidomimetic macrocycles of the invention.
First reader's note: The title is the heading of the plot printed under the table; the table gives the rate constants and half-lives of the pepsin digestion, fitted over the named time points.

[2] = Pepsin Stability: (E/S 1:50); remark: listed apart in the source
Source text: Table printed on a drawing sheet, Figure 13
as §1
The patent's description of the figure: FIG. 13 describes the comparative pepsin stability of SP-36 and SP-37 peptidomimetic macrocycles of the invention.
First reader's note: Each peptide appears twice (duplicate runs); the title is printed between the table and the plot of the same figure, and NC/NA are not defined on the sheet.

[3] = Pharmacokinetics of SP-43 and SP-42 in Rat following IV dose; settings: in vivo
Source text: Table printed on a drawing sheet, Figure 20
Title: Pharmacokinetics of SP-43 and SP-42 in Rat following IV dose
The patent's description of the figure: FIG. 20 illustrates the pharmacokinetic properties of SP-42 and SP-43 peptidomimetic macrocycles in rats.
First reader's note: Pharmacokinetic parameters in rat after an IV dose; the table stands under a concentration-time plot that is not copied.

SMILES: CCCC[C@H](NC(=O)[C@@H]1CSCCCCSC[C@H](NC(=O)[C@H](C)NC(=O)[C@H](CC(C)C)NC(=O)[C@H](Cc2c[nH]cn2)NC(=O)[C@H](CCCNC(=N)N)NC(=O)[C@H](C)NC(=O)[C@@H](NC(=O)[C@H](CC(N)=O)NC(=O)[C@H](CCCNC(=N)N)NC(=O)[C@@H](NC(=O)[C@@H](NC(=O)[C@H](CC(=O)O)NC(C)=O)[C@@H](C)CC)[C@@H](C)CC)[C@@H](C)CC)C(=O)N[C@@H](C(C)C)C(=O)NCC(=O)N[C@@H](CC(=O)O)C(=O)N1)C(=O)N[C@@H](CC(=O)O)C(=O)N[C@@H](CCCNC(=N)N)C(=O)N[C@@H](CO)C(=O)N[C@H](C(N)=O)[C@@H](C)CC [SP-33, Ac-DIIRNIARHLA#c4VGD#c4NleDRSI-NH2] (Ac-DIIRNIARHLACVGDC[Nle]DRSI-NH2; linker 12-16 via X2)
K1 min^-1 [1]: 0.054 min⁻¹
K2 min^-1 [1]: 0.0046 min⁻¹
half-life^1 [1]: 13 min
half-life^2 [1]: 150 min

SMILES: CCCC[C@H](NC(=O)C1(C)CSCCCCSCC(C)(NC(=O)[C@H](C)NC(=O)[C@H](CC(C)C)NC(=O)[C@H](Cc2c[nH]cn2)NC(=O)[C@H](CCCNC(=N)N)NC(=O)[C@H](C)NC(=O)[C@@H](NC(=O)[C@H](CC(N)=O)NC(=O)[C@H](CCCNC(=N)N)NC(=O)[C@@H](NC(=O)[C@@H](NC(=O)[C@H](CC(=O)O)NC(C)=O)[C@@H](C)CC)[C@@H](C)CC)[C@@H](C)CC)C(=O)N[C@@H](C(C)C)C(=O)NCC(=O)N[C@@H](CC(=O)O)C(=O)N1)C(=O)N[C@@H](CC(=O)O)C(=O)N[C@@H](CCCNC(=N)N)C(=O)N[C@@H](CO)C(=O)N[C@H](C(N)=O)[C@@H](C)CC (stereo partly drawn) [SP-34, Ac-DIIRNIARHLA$c4VGD$c4NleDRSI-NH2] (Ac-DIIRNIARHLA[ξαMeC]VGD[ξαMeC][Nle]DRSI-NH2; linker 12-16 via X2)
K1 min^-1 [1]: 0.0019 min⁻¹
half-life^1 [1]: 360 min

SMILES: CCCC[C@H](NC(=O)[C@@H]1CSCC=CCSC[C@H](NC(=O)[C@H](C)NC(=O)[C@H](CC(C)C)NC(=O)[C@H](Cc2c[nH]cn2)NC(=O)[C@H](CCCNC(=N)N)NC(=O)[C@H](C)NC(=O)[C@@H](NC(=O)[C@H](CC(N)=O)NC(=O)[C@H](CCCNC(=N)N)NC(=O)[C@@H](NC(=O)[C@@H](NC(=O)[C@H](CC(=O)O)NC(C)=O)[C@@H](C)CC)[C@@H](C)CC)[C@@H](C)CC)C(=O)N[C@@H](C(C)C)C(=O)NCC(=O)N[C@@H](CC(=O)O)C(=O)N1)C(=O)N[C@@H](CC(=O)O)C(=O)N[C@@H](CCCNC(=N)N)C(=O)N[C@@H](CO)C(=O)N[C@H](C(N)=O)[C@@H](C)CC [SP-36, Ac-DIIRNIARHLA#cVGD#cNleDRSI-NH2] (Ac-DIIRNIARHLACVGDC[Nle]DRSI-NH2; linker 12-16 via X1)
K1 min^-1 [2]: 0.095 min⁻¹ and 0.082 min⁻¹
K2 min^-1 [2]: 0.0290 min⁻¹ and 0.024 min⁻¹
half-life^1 [2]: 7.3 min and 8.5 min
half-life^2 [2]: 24 min and 29 min

Cmax [3]: 41200 ng/mL
MRT [3]: 66 min
SMILES: CC(=O)N[C@@H](CCC(N)=O)C(=O)N[C@@H](CO)C(=O)N[C@@H](CCC(N)=O)C(=O)N[C@@H](CCC(N)=O)C(=O)N[C@H](C(=O)N[C@@H](Cc1ccccc1)C(=O)N[C@@H]1CCCCCCC=CCCC[C@@H](C(=O)N[C@@H](CCC(N)=O)C(=O)N[C@@H](CC(N)=O)C(N)=O)NC(=O)[C@H](CC(C)C)NC(=O)[C@H](CC(C)C)NC(=O)[C@H](CCCNC(=N)N)NC(=O)[C@H](Cc2c[nH]c3ccccc23)NC(=O)[C@H](CC(C)C)NC(=O)[C@H](CC(N)=O)NC1=O)[C@@H](C)O [SP-42, Ac-QSQQTF#r8NLWRLL#QN-NH2]
